Reference: patent publication US20050256073A1, “Immunostimulatory viral RNA oligonucleotides” (Coley Pharmaceutical Group, Inc., priority 2004, published 2005)
Values joined by “and” are separate entries in the source; they are usually repeats but may differ in a detail not shown here. Equal entries are not always repeated. Where two headings read alike, the source gives them in different places.

Legend:
Format in all cases: cell-based
[1] = tested on: human CD19+ cells (B cells); assay: CD80 expression on human CD19+ cells (FACS)
human PBMC [2] = conditions: for EC50: read-out: IFN-α production EC50
human PBMC [3] = conditions: for EC50: read-out: TNF production EC50
human PBMC [4] = tested on: human PBMC
human TLR8 = molecular target: T1, human TLR8 (Homo sapiens, UniProt Q9NR97); assay: NF-κB-luciferase readout in HEK293 cells stably transfected with human TLR8
T1 construct: expressed in transfected cells; host or cells: HEK293 cells, stably transfected, with NF-κB-luciferase reporter construct
T1 sequence (Q9NR97 27-1041): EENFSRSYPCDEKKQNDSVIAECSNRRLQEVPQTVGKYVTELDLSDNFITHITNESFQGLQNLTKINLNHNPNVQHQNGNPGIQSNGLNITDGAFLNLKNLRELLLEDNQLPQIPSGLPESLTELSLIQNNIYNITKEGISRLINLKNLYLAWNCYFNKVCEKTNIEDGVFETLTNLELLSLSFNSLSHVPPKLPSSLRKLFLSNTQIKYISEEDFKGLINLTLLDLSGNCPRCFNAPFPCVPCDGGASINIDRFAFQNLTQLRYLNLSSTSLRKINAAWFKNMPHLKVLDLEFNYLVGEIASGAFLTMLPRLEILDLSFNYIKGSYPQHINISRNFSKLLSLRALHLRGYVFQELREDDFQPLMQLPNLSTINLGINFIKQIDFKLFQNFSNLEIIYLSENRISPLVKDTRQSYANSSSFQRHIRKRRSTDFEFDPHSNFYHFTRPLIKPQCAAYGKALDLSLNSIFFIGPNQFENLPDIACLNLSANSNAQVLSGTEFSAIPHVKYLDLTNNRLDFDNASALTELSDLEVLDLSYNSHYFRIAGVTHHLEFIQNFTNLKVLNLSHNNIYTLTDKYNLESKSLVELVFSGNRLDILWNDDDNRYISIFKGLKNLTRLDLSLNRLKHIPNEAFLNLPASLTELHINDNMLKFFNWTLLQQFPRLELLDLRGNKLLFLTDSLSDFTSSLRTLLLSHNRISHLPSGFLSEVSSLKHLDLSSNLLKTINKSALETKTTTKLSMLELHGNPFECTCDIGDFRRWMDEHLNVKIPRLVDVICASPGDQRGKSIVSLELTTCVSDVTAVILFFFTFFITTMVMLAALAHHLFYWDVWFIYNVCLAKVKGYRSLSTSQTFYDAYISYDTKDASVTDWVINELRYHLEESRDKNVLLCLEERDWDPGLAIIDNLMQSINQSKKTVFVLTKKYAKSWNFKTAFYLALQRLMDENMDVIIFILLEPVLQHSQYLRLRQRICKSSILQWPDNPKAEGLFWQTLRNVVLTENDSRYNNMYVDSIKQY
Procedure: (§1) Emitted light varied in direct proportion to NF-κB activation.
(§2) The effect of immunostimulatory oligonucleotide was assessed by titrating the amount or concentration of oligonucleotide concentration in a given experiment. The effect of immunostimulatory oligonucleotide concentration was expressed in terms of EC50 (concentration at which immunostimulatory oligonucleotide was 50 percent effective compared to maximum effect). The potency of a given immunostimulatory oligonucleotide was expressed as maximum stimulation index (SI max; the maximum fold increase in signal over that of untreated control) or maximum activity.
(§3) Stimulation and measurement of signal transduction in HEK293 cells stably transfected with either human TLR8 or human TLR9 and an NF-κB-luciferase reporter construct was performed essentially as described in Example 1. […] Results are expressed in terms of EC50 in μM and stimulation index (SI)=fold induction of NF-κB-luciferase activity in ligand-pulsed cells.

human TLR9 = molecular target: T2, human TLR9 (Homo sapiens, UniProt Q9NR96); assay: NF-κB-luciferase readout in HEK293 cells stably transfected with human TLR9
T2 construct: expressed in transfected cells; host or cells: HEK293 cells, stably transfected, with NF-κB-luciferase reporter construct
T2 sequence (Q9NR96 26-1032): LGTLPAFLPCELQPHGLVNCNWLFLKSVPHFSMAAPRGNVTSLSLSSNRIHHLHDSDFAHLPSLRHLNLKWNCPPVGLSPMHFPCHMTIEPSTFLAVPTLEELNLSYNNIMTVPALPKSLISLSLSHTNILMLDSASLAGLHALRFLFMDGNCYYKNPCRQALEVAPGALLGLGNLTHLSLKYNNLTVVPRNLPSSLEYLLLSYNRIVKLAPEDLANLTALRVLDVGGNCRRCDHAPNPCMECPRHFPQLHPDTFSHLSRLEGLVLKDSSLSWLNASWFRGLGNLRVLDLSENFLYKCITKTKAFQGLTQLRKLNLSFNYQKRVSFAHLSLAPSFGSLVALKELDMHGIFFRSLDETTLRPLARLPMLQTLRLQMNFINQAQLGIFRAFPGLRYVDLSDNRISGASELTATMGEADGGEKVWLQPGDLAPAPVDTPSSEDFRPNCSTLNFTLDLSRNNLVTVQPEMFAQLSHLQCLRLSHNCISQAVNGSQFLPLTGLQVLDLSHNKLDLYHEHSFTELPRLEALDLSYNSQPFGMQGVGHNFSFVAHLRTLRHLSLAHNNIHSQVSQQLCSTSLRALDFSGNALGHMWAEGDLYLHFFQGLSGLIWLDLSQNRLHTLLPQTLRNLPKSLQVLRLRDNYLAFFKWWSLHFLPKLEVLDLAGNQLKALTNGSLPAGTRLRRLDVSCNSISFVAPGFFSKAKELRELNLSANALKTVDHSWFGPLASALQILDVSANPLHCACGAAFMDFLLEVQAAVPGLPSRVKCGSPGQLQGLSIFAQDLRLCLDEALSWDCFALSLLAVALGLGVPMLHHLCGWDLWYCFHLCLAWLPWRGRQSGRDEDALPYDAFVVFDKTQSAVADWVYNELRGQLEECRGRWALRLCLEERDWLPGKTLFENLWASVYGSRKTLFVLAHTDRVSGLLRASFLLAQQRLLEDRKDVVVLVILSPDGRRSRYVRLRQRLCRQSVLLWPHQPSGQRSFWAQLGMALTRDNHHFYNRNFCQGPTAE
Procedure: as §1, §2, §3

human PBMC [5] = conditions: for EC50: read-out: IFN-γ production EC50
human CD14+ cells = assay: CD80 expression on human CD14+ cells (FACS)

Substance	IFN-α production max activity (human PBMC [2]) [pg/mL]	EC50 (human PBMC [2])	TNF production max activity (human PBMC [3])	EC50 (human PBMC [3])	IFN-γ production max activity (human PBMC [5])	other results
TCGTCGTTTTCGGCGCGCGCCG [CpG ODN 2395, reference compound]						induction of co-stimulatory molecule CD80 on CD19+ cells (B cells) [1]: induce
TUGTUGTTTTGTUGTTTTGTUGTT [ORN 16]	2267	1100 nM	56667 pg/mL	234 nM		
GCCACCGAGCCGAAGGCAAC [ORN 21, reference compound]	0		0 pg/mL			immunostimulatory activity (in words) (human PBMC [4]): no immunostimulatory activity
dNdNdNdNdNdNdNUGdNdNdNdNdNdNdNdNdN [ORN 34]	0		0 pg/mL			
UUGUUGUUUUUGGUGGUUGUUG [ORN 17]	3000	15.2 nM	70000 pg/mL	57.5 nM		
dTdCdGdTdCdGdTdTdT 2′-5′ (GUUGUGU) dAdAdT [ORN 13]		15 nM and 25 nM	0 pg/mL		0 pg/mL	TLR8 stimulation (in words) (human TLR8): lost; TLR9 stimulation (in words) (human TLR9): maintained; EC50 (human TLR9; Table 11, HEK293, NF-κB-luciferase): 110 nM
AGCGAAAGCAGGUCAAUUAU [ORN 5, reference compound]	0		0 pg/mL		0 pg/mL	
CUUACCCAACUUUGUUUGGU [ORN 2]		34 nM and 68 nM and 60 nM and 38 nM and 50 nM	9500 pg/mL and 8000 pg/mL and 13000 pg/mL and 10000 pg/mL and 7000 pg/mL		50000 pg/mL and 40000 pg/mL and 45000 pg/mL	EC50 (human PBMC [5]): 514 nM and 529 nM and 522 nM
GCCACCGAGCCGAUUGUACC [ORN 22]	2417	1110 nM	23833 pg/mL	244 nM		
TUGTUGTTTTUGGUGGUUGUUG [ORN 18]	2617	79.5 nM	61667 pg/mL	200 nM		
UUGUACGCAUUUUUUCGCGU [ORN 1]			8500 pg/mL and 8000 pg/mL and 10000 pg/mL	494 nM and 417 nM and 473 nM and 529 nM and 478 nM	50000 pg/mL and 60000 pg/mL and 55000 pg/mL	EC50 (human PBMC [5]): 592 nM and 517 nM and 555 nM
GGGGAUGAUGTUGTGGGGGGG [ORN 20]	0		0 pg/mL			
dNdNdNdNdNdNUUGUdNdNdNdNdNdNdNdN [ORN 32]	666.7	4560 nM	30000 pg/mL	7980 nM		
UUGUUGUUUUGUUGUUUUGUUGUU [ORN 15]	2500	5 nM	60000 pg/mL	40 nM		
UGUUUUUUCUCUUGUUUGGU [ORN 3]				419 nM and 421 nM and 470 nM and 337 nM and 412 nM	60000 pg/mL and 70000 pg/mL and 65000 pg/mL	induction of co-stimulatory molecule CD80 on CD14+ cells (human CD14+ cells): induce; induction of co-stimulatory molecule CD80 on CD19+ cells (B cells) [1]: induce; EC50 (human PBMC [5]): 528 nM and 606 nM and 567 nM
dNdNdNdNdNdNUUGUGdNdNdNdNdNdNdN [ORN 31]	766.7	3870 nM	18000 pg/mL	4890 nM		
AUAAUUGACCUGCUUUCGCU [ORN 4]			5750 pg/mL and 8000 pg/mL and 5000 pg/mL	412 nM and 400 nM and 559 nM and 512 nM and 471 nM		induction of co-stimulatory molecule CD80 on CD14+ cells (human CD14+ cells): induce; induction of co-stimulatory molecule CD80 on CD19+ cells (B cells) [1]: induce; profile of immunostimulation (cytokines induced) (human PBMC [4]): very broad, including induction of TNF-α, IL-6, IL-12 p40, IFN-α, and IFN-γ; EC50 (human PBMC [5]): 637 nM and 490 nM and 564 nM
GCCACCGAGCCGAUUUUACC [ORN 23]	2333	41 nM	25500 pg/mL	228 nM		
UCGUCGUUUUGUCGUUUUGUCGUU [ORN 14]	2783	37.3 nM	53833 pg/mL	78 nM		
AAUGGUUUGUUUGUCUUCGU [ORN 7]			7500 pg/mL and 10000 pg/mL and 7000 pg/mL and 8000 pg/mL and 5000 pg/mL	357 nM and 325 nM and 544 nM and 468 nM and 424 nM	50000 pg/mL and 80000 pg/mL and 65000 pg/mL	EC50 (human PBMC [5]): 490 nM and 642 nM and 566 nM
UUGAUCUGGUUGUUAAGCGU [ORN 6]			8750 pg/mL and 10000 pg/mL and 7000 pg/mL and 8000 pg/mL	462 nM and 409 nM and 604 nM and 498 nM and 493 nM	60000 pg/mL and 30000 pg/mL and 45000 pg/mL	EC50 (human PBMC [5]): 635 nM and 586 nM and 611 nM
dNdNdNdNdNdNUUGdNdNdNdNdNdNdNdNdN [ORN 33]	0		0 pg/mL			
GGGGAUGAUGUUGUGGGGGGG [ORN 19]	2867	129 nM	37667 pg/mL	415 nM		
